Data: patent US20250353855A1, “HETEROCYCLIC AND HETEROARYL COMPOUNDS FOR TREATING HUNTINGTON'S DISEASE” (PTC THERAPEUTICS, INC., priority 2022, published 2025)

These compounds were tested on Endogenous Huntingtin Protein (assay: Endogenous Huntingtin Protein Assay (ELISA-based MSD electrochemiluminescence)). Settings: MSD plates coated with MW1 (expanded polyglutamine) or MAB2166 capture antibody; lysates.
Type: cell-based
Method in brief: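 Electrochemiluminescence sandwich ELISA for endogenous huntingtin: capture with MW1 (expanded polyglutamine) or MAB2166 antibody at 1 μg/mL, samples incubated overnight at 4° C. Detection with rabbit monoclonal #5656S then goat anti-rabbit SULFO-TAG antibody (each 0.25 μg/mL, 1 h room temperature), read on MSD imager.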

Row | SMILES | IC50 [nM]
1 | CC1(C)C[C@H](N2CCc3cc(-c4cc5ncccc5cc4O)nnc32)[C@H](F)C(C)(C)N1 [Cpd 80, 7-{7-[(3S,4S)-3-fluoro-2,2,6,6-tetramethylpiperidin-4-yl]-6,7-dihydro-5H-pyrrolo[2,3-c]pyridazin-3-yl}quinolin-6-ol] | < 100
2 | COc1cnc2cc(-c3cc4c(nn3)N([C@H]3CC(C)(C)NC(C)(C)[C@H]3F)CC4)c(O)cc2n1 [Cpd 84, 7-{7-[(3S,4S)-3-fluoro-2,2,6,6-tetramethylpiperidin-4-yl]-6,7-dihydro-5H-pyrrolo[2,3-c]pyridazin-3-yl}-3-methoxyquinoxalin-6-ol] | < 100
3 | CSc1nc2cc(O)c(-c3cc4c(nn3)N([C@H]3CC(C)(C)NC(C)(C)[C@H]3F)CC4)cc2s1 [Cpd 98, 6-{7-[(3S,4S)-3-fluoro-2,2,6,6-tetramethylpiperidin-4-yl]-6,7-dihydro-5H-pyrrolo[2,3-c]pyridazin-3-yl}-2-(methylsulfanyl)-1,3-benzothiazol-5-ol] | < 100

Same assay, conditions: MSD plates coated with MW1 (expanded polyglutamine) or MAB2166 capture antibody; lysates; read-out: IC50

Row | SMILES | IC50 [nM]
4 | Cc1nc2cc(O)c(-c3cc4c(nn3)N(C3CC5(CC5)NC5(CC5)C3)CC4)cc2o1 (centres unmarked) [Cpd 72, 6-[7-(4-azadispiro[2.1.25.33]decan-9-yl)-6,7-dihydro-5H-pyrrolo[2,3-c]pyridazin-3-yl]-2-methyl-1,3-benzoxazol-5-ol] | < 100
5 | Cc1cc2cc(-c3cc4c(nn3)N([C@H]3CC(C)(C)NC(C)(C)[C@H]3F)CC4)c(O)cc2oc1=O [Cpd 73, 6-{7-[(3S,4S)-3-fluoro-2,2,6,6-tetramethylpiperidin-4-yl]-6,7-dihydro-5H-pyrrolo[2,3-c]pyridazin-3-yl}-7-hydroxy-3-methyl-2H-1-benzopyran-2-one] | < 100
6 | Cc1cnc2cc(-c3cc4c(nn3)N([C@H]3CC(C)(C)NC(C)(C)[C@H]3F)CC4)c(O)cc2c1 [Cpd 75, 7-{7-[(3S,4S)-3-fluoro-2,2,6,6-tetramethylpiperidin-4-yl]-6,7-dihydro-5H-pyrrolo[2,3-c]pyridazin-3-yl}-3-methylquinolin-6-ol] | < 100
7 | Cc1ccc2cc(-c3cc4c(nn3)N([C@H]3CC(C)(C)NC(C)(C)[C@H]3F)CC4)c(O)cc2n1 [Cpd 76, 6-{7-[(3S,4S)-3-fluoro-2,2,6,6-tetramethylpiperidin-4-yl]-6,7-dihydro-5H-pyrrolo[2,3-c]pyridazin-3-yl}-2-methylquinolin-7-ol] | < 100
8 | Cc1ccc2cc(O)c(-c3cc4c(nn3)N([C@H]3CC(C)(C)NC(C)(C)[C@H]3F)CC4)cc2n1 [Cpd 77, 7-{7-[(3S,4S)-3-fluoro-2,2,6,6-tetramethylpiperidin-4-yl]-6,7-dihydro-5H-pyrrolo[2,3-c]pyridazin-3-yl}-2-methylquinolin-6-ol] | < 100
9 | COc1cc(=O)oc2cc(O)c(-c3cc4c(nn3)N([C@H]3CC(C)(C)NC(C)(C)[C@H]3F)CC4)cc12 [Cpd 78, 6-{7-[(3S,4S)-3-fluoro-2,2,6,6-tetramethylpiperidin-4-yl]-6,7-dihydro-5H-pyrrolo[2,3-c]pyridazin-3-yl}-7-hydroxy-4-methoxy-2H-1-benzopyran-2-one] | < 100
10 | Cc1cnc2cc(O)c(-c3cc4c(nn3)N([C@H]3CC(C)(C)NC(C)(C)[C@H]3F)CC4)cc2c1 [Cpd 81, 6-{7-[(3S,4S)-3-fluoro-2,2,6,6-tetramethylpiperidin-4-yl]-6,7-dihydro-5H-pyrrolo[2,3-c]pyridazin-3-yl}-3-methylquinolin-7-ol] | < 100
11 | CC1(C)C[C@H](N2CCc3cc(-c4cc5occc(=O)c5cc4O)nnc32)[C@H](F)C(C)(C)N1 [Cpd 82, 7-{7-[(3S,4S)-3-fluoro-2,2,6,6-tetramethylpiperidin-4-yl]-6,7-dihydro-5H-pyrrolo[2,3-c]pyridazin-3-yl}-6-hydroxy-4H-1-benzopyran-4-one] | < 100
12 | Cc1cc(=O)c2cc(O)c(-c3cc4c(nn3)N([C@H]3CC(C)(C)NC(C)(C)[C@H]3F)CC4)cc2o1 [Cpd 83, 7-{7-[(3S,4S)-3-fluoro-2,2,6,6-tetramethylpiperidin-4-yl]-6,7-dihydro-5H-pyrrolo[2,3-c]pyridazin-3-yl}-6-hydroxy-2-methyl-4H-1-benzopyran-4-one] | < 100
13 | CC1(C)C[C@H](N2CCc3cc(-c4cc5nsnc5cc4O)nnc32)[C@H](F)C(C)(C)N1 [Cpd 85, 6-{7-[(3S,4S)-3-fluoro-2,2,6,6-tetramethylpiperidin-4-yl]-6,7-dihydro-5H-pyrrolo[2,3-c]pyridazin-3-yl}-2,1,3-benzothiadiazol-5-ol] | < 100
14 | CC1(C)C[C@H](N2CCc3cc(-c4cc5oc(=O)[nH]c5cc4O)nnc32)[C@H](F)C(C)(C)N1 [Cpd 86, 6-{7-[(3S,4S)-3-fluoro-2,2,6,6-tetramethylpiperidin-4-yl]-6,7-dihydro-5H-pyrrolo[2,3-c]pyridazin-3-yl}-5-hydroxy-1,3-benzoxazol-2(3H)-one] | < 100
15 | Cc1ncc2cc(O)c(-c3cc4c(nn3)N([C@H]3CC(C)(C)NC(C)(C)[C@H]3F)CC4)cc2n1 [Cpd 87, 7-{7-[(3S,4S)-3-fluoro-2,2,6,6-tetramethylpiperidin-4-yl]-6,7-dihydro-5H-pyrrolo[2,3-c]pyridazin-3-yl}-2-methylquinazolin-6-ol] | < 100
16 | Cn1nc2cc(O)c(-c3cc4c(nn3)N([C@H]3CC(C)(C)NC(C)(C)[C@H]3F)CC4)cc2n1 [Cpd 88, 6-{7-[(3S,4S)-3-fluoro-2,2,6,6-tetramethylpiperidin-4-yl]-6,7-dihydro-5H-pyrrolo[2,3-c]pyridazin-3-yl}-2-methyl-2H-benzotriazol-5-ol] | < 100
17 | Cn1cc2cc(O)c(-c3cc4c(nn3)N([C@H]3CC(C)(C)NC(C)(C)[C@H]3F)CC4)cc2n1 [Cpd 89, 6-{7-[(3S,4S)-3-fluoro-2,2,6,6-tetramethylpiperidin-4-yl]-6,7-dihydro-5H-pyrrolo[2,3-c]pyridazin-3-yl}-2-methyl-2H-indazol-5-ol] | < 100
18 | CC1(C)C[C@H](N2CCc3cc(-c4cc5ncc(F)cc5cc4O)nnc32)[C@H](F)C(C)(C)N1 [Cpd 90, 3-fluoro-7-{7-[(3S,4S)-3-fluoro-2,2,6,6-tetramethylpiperidin-4-yl]-6,7-dihydro-5H-pyrrolo[2,3-c]pyridazin-3-yl}quinolin-6-ol] | < 100
19 | Cn1nnc2cc(O)c(-c3cc4c(nn3)N([C@H]3CC(C)(C)NC(C)(C)[C@H]3F)CC4)cc21 [Cpd 92, 6-{7-[(3S,4S)-3-fluoro-2,2,6,6-tetramethylpiperidin-4-yl]-6,7-dihydro-5H-pyrrolo[2,3-c]pyridazin-3-yl}-1-methyl-1H-benzotriazol-5-ol] | < 100
20 | CC1(C)C[C@H](N2CCc3cc(-c4cc5cc(F)cnc5cc4O)nnc32)[C@H](F)C(C)(C)N1 [Cpd 93, 3-fluoro-6-{7-[(3S,4S)-3-fluoro-2,2,6,6-tetramethylpiperidin-4-yl]-6,7-dihydro-5H-pyrrolo[2,3-c]pyridazin-3-yl}quinolin-7-ol] | < 100
21 | CC1(C)C[C@H](n2ccc3cc(-c4cc5cc(F)cnc5cc4O)nnc32)[C@H](F)C(C)(C)N1 [Cpd 94, 3-fluoro-6-{7-[(3S,4S)-3-fluoro-2,2,6,6-tetramethylpiperidin-4-yl]-7H-pyrrolo[2,3-c]pyridazin-3-yl}quinolin-7-ol] | < 100
22 | Cc1nc2cc(O)c(-c3cc4c(nn3)N([C@@H]3CC(C)(C)NC5(CC5)C3)CC4)cc2o1 [Cpd 95, 6-{7-[(7R)-5,5-dimethyl-4-azaspiro[2.5]octan-7-yl]-6,7-dihydro-5H-pyrrolo[2,3-c]pyridazin-3-yl}-2-methyl-1,3-benzoxazol-5-ol] | < 100
23 | COc1nc2cc(O)c(-c3cc4ccn([C@H]5CC(C)(C)NC(C)(C)[C@H]5F)c4nn3)cc2s1 [Cpd 96, 6-{7-[(3S,4S)-3-fluoro-2,2,6,6-tetramethylpiperidin-4-yl]-7H-pyrrolo[2,3-c]pyridazin-3-yl}-2-methoxy-1,3-benzothiazol-5-ol] | < 100
24 | COc1nc2cc(O)c(-c3cc4c(nn3)N([C@H]3CC(C)(C)NC(C)(C)[C@H]3F)CC4)cc2s1 [Cpd 97, 6-{7-[(3S,4S)-3-fluoro-2,2,6,6-tetramethylpiperidin-4-yl]-6,7-dihydro-5H-pyrrolo[2,3-c]pyridazin-3-yl}-2-methoxy-1,3-benzothiazol-5-ol] | < 100
25 | CSc1nc2cc(O)c(-c3cc4ccn([C@H]5CC(C)(C)NC(C)(C)[C@H]5F)c4nn3)cc2s1 [Cpd 99, 6-{7-[(3S,4S)-3-fluoro-2,2,6,6-tetramethylpiperidin-4-yl]-7H-pyrrolo[2,3-c]pyridazin-3-yl}-2-(methylsulfanyl)-1,3-benzothiazol-5-ol] | < 100
26 | Cn1cc2cc(-c3cc4ccn([C@H]5CC(C)(C)NC(C)(C)[C@H]5F)c4nn3)c(O)c(F)c2n1 [Cpd 100, 7-fluoro-5-{7-[(3S,4S)-3-fluoro-2,2,6,6-tetramethylpiperidin-4-yl]-7H-pyrrolo[2,3-c]pyridazin-3-yl}-2-methyl-2H-indazol-6-ol] | < 100
27 | Cn1cc2cc(-c3cc4c(nn3)N([C@H]3CC(C)(C)NC(C)(C)[C@H]3F)CC4)c(O)c(F)c2n1 [Cpd 101, 7-fluoro-5-{7-[(3S,4S)-3-fluoro-2,2,6,6-tetramethylpiperidin-4-yl]-6,7-dihydro-5H-pyrrolo[2,3-c]pyridazin-3-yl}-2-methyl-2H-indazol-6-ol] | < 100
28 | Cc1nc2cc(-c3cc4ccn([C@H]5CC(C)(C)NC(C)(C)[C@H]5F)c4nn3)c(O)c(F)c2o1 [Cpd 102, 7-fluoro-5-{7-[(3S,4S)-3-fluoro-2,2,6,6-tetramethylpiperidin-4-yl]-7H-pyrrolo[2,3-c]pyridazin-3-yl}-2-methyl-1,3-benzoxazol-6-ol] | < 100
29 | Cc1nc2cc(-c3cc4c(nn3)N([C@H]3CC(C)(C)NC(C)(C)[C@H]3F)CC4)c(O)c(F)c2o1 [Cpd 103, 7-fluoro-5-{7-[(3S,4S)-3-fluoro-2,2,6,6-tetramethylpiperidin-4-yl]-6,7-dihydro-5H-pyrrolo[2,3-c]pyridazin-3-yl}-2-methyl-1,3-benzoxazol-6-ol] | < 100
